Test results taken from patent publication US20250308622A1, “METHODS FOR PREDICTING TRANSCRIPTION FACTOR ACTIVITY” (THE REGENTS OF THE UNIVERSITY OF COLORADO, A BODY CORPORATE, priority 2017, published 2025).

Key:
[1] = tested on: STAT2; assay: MD-level time series after Kdo2-lipid A, normalized to time-matched DMSO; type: cell-based; details: mouse T-cells, 1-24 hour time course, relative to time-matched DMSO, FIG. 12E
Protocol: (§1) The top panel of FIG. 4A indicates the motif displacement distribution, MD-level, and the number of motifs within […] of any eRNA origin before and after stimulation with Nutlin-3a (e.g., Nutlin) on TP53, the transcription factor known to be activated. […] Blue dots indicate a MD-level difference <10^−6.
(§2) In each of the aforementioned perturbations, nascent transcription was assessed at a time point of one hour or less. Therefore, it was determined whether MD-levels could capture transcription factor activity across broader time frames. […] For a number of TFs, MD-levels trend upward at 12.5 minutes and show significant changes within 25 minutes of exposure.
(§3) GEO SRR numbers of these comparisons are outlined in Table 2.

[2] = tested on: interferon (IRF7); assay: as above; type: cell-based; details: mouse T-cells, 1-24 hour time course, relative to time-matched DMSO, FIG. 12E
Protocol: as §1, §2, §3

[3] = tested on: YBOX1; assay: as above; type: cell-based; details: mouse T-cells, 1-24 hour time course, relative to time-matched DMSO, FIG. 12E
[4] = tested on: 641 available TF-motif models; assay: Differential MD-level analysis before/after Nutlin-3a, all available TF-motif models; type: cell-based, human; details: HCT116 cells, of 641 TF-motif models, p-value<10^−6, FIG. 12A
Excerpt: (§4) The bottom panel of FIG. 4A indicates the change in MD-level (AMDS) following perturbation (y-axis) relative to the number of motifs within 1.5kb of any eRNA origin (x-axis). […] (D) A time series data set following treatment with Flavopiridol Jonkers2014. The y-axis indicates the MD-level change relative to time point 0. Blue dots indicate a MD-level difference <10^−6. A darker shaded line indicates a time trajectory with at least one significant MD-level. (E) Time series data set following treatment with Kdo2-lipid A (KLA) where each time point is normalized to time-matched DMSO Kaikkonen2014. Therefore, the y-axis indicates MD-level difference relative to the time point matched DMSO sample.
(§5) The Motif Displacement score (MD-level) relates the proportion of significant motif sites within some window 2*h divided by the total number of motifs against some larger window 2*H centered at all bidirectional origin events. It is calculated on a per PWM binding model basis.
Let Xj={x1,x2, . . . } be the set of bidirectional origin locations genome wide for some experiment j. Let Yi={y1,y2, . . . } be the set of all significant motif sites for some TF-DNA binding motif model i genome wide, which is static as it only depends on the genome build of interest. Therefore the set of all MD-levels is calculated by equation 10. […]

[5] = tested on: E4F1; assay: MD-level time series after flavopiridol; type: cell-based; details: mouse embryonic cells, time series 0-50 minutes relative to time point 0, FIG. 12D
Excerpt: as §4
(§6) In each of the aforementioned perturbations, nascent transcription was assessed at a time point of one hour or less.
(§7) FIG. 12D data set following treatment with Flavopiridol Jonkers2014. The y-axis indicates the MD-level change relative to time point 0. […]
as §5
(§8) Let Xj={x1,x2, . . . } be the set of bidirectional origin locations genome wide for some experiment j. […] Therefore the set of all MD-levels is calculated by equation 10. […]

[6] = tested on: TP53; assay: MD-level time series after flavopiridol; type: cell-based; details: mouse embryonic cells, time series 0-50 minutes relative to time point 0, FIG. 12D
Excerpt: as §4, §6, §7, §5, §8

[7] = tested on: TFs; assay: MD-level time series after flavopiridol, all TFs; type: cell-based; details: mouse embryonic cells
Excerpt: as §4, §6, §7, §5, §8

For CCCCCCCCCCCCCC(=O)O[C@H](CCCCCCCCCCC)CC(=O)O[C@@H]1[C@@H](NC(=O)C[C@@H](CCCCCCCCCCC)OC(=O)CCCCCCCCCCC)[C@H](OC[C@H]2O[C@H](OP(=O)(O)O)[C@H](NC(=O)C[C@H](O)CCCCCCCCCCC)[C@@H](OC(=O)C[C@H](O)CCCCCCCCCCC)[C@@H]2O)O[C@H](CO[C@]2(C(=O)O)C[C@@H](O[C@]3(C(=O)O)C[C@@H](O)[C@@H](O)[C@@H]([C@H](O)CO)O3)[C@@H](O)[C@@H]([C@H](O)CO)O2)[C@H]1OP(=O)(O)O [Kdo2-lipid A], the “shifts in MD-level of STAT2” value [1] was “dynamic and time-ordered shifts”, the “shifts in MD-level of interferon (IRF7)” value [2] was “dynamic and time-ordered shifts” and the “change in co-localization (MD-level) of YBOX1” value [3] was “decreased in co-localization”.
COc1ccc(C2=N[C@@H](c3ccc(Cl)cc3)[C@@H](c3ccc(Cl)cc3)N2C(=O)N2CCNC(=O)C2)c(OC(C)C)c1 [Nutlin-3a] was tested, and the “TF-motif models displaying elevated MD-levels following treatment” value [4] was “only TP53 and TP63”.
With CN1CC[C@H](c2c(O)cc(O)c3c(=O)cc(-c4ccccc4Cl)oc23)[C@H](O)C1 [flavopiridol] the “change in MD-level of E4F1” value [5] was “dramatic and monotonic increase”, the “change in MD-level of TP53” value [6] was “dramatic and monotonic increase” and the “MD-levels at 12.5 minutes, a number of TFs” value ([7]; 12.5 minutes of exposure) was “trend upward”. For the same molecule, the “time of exposure to significant changes in MD-levels, a number of TFs” value ([7]; significance p<10^−6) was at most 25 min.
